Columns and labels:
Experiment in all cases: DNA chip expression analysis of barley leaves after soil treatment
Assay type in all cases: in vivo
Conditions in all cases: 10 mg per plant to soil
[1] = test system: Contig11773_at REGULATOR OF PAT[…]
Description: (§1) Barley seeds (of the Baroness variety) were sown in pots containing soil about 2 cm deep (1250 g of sandy loam/per pot; the soil moisture content was adjusted to 70% of the maximum water-holding capacity) and cultivated in a climatized chamber under specified light, moisture and temperature conditions (15 h white light, 70% atmospheric humidity, 23-19° C. day/night).
(§2) 14 days after the emergence of the barley plants 10 mg of imidacloprid per plant, dissolved in 100 ml water, were applied by means of a pipette to the soil around the base of the shoot. The same volume of water without any active compound was applied to the control pots. After the soil treatment the plants were no longer watered. At various times after application (0.25; 1; 6; 8; 11; 13; 15; 16 and 17 days) the leaves were harvested, quick-frozen in liquid nitrogen and stored at −80° C. until further treatment.
(§3) The labelled RNA probes for the DNA chip hybridization were produced according to the protocols (Expression Analysis, Technical Manual) of the Affymetrix company (Affymetrix Inc., 3380 Central Expressway, Santa Clara, Calif., USA). Whole RNA was first of all isolated from in each case 500 mg of the harvested leaves. 10 μg portions of whole RNA were used for the first and second strand cDNA synthesis. The cDNA was amplified with T7 polymerase and simultaneously labelled with biotin-UTP. 20 μg portions of this biotinylated cDNA were used for the hybridization of the barley genome array (Barleyl Gene Chip, Item no: 511012) from Affymetrix. This DNA microarray contains DNA sequences of 22840 genes composed of a total of 400000 EST (Expressed Sequence Tag) sequences. Then the DNA microarrays were washed in the Affymetrix Fluidics Station, stained with streptavidin/phycoerythrin (Molecular Probes, P/N S-866) and scanned with the Affymetrix Gene Chip Scanner 3000. The fluorescence data obtained were analyzed with the Microarray Suite 5 software from Affymetrix and the Expressionist Pro software from the GeneData company. After a quality check, all of the DNA chip analyses were stored in a database. Since the Affymetrix Gene Chip System is based on measuring the absolute expression values of the genes contained in the chip, the expression values of the biological replicates of treated and non-treated plants were averaged after normalization (median calculation). With the aid of the statistical ANOVA method, those genes were identified whose expression was increased in the plants treated with imidacloprid but remained relatively constant in the untreated controls. The assembly of gene groups from specific metabolic pathways, signal transduction chains or functions was carried out by a keyword search through the gene annotations supplied by Affymetrix and by linking the genes to their corresponding Gene Ontology Annotations (Gene Ontology Consortium).

[2] = test system: Contig2211_at PATHOGENESIS-RELATED PROTEIN PRECURSOR
Description: as §1, §2, §3

[3] = test system: Contig2990_at CHITINASE (EC 3.2.1.14)
Description: as §1, §2, §3

[4] = test system: Contig639_at PATHOGENESIS-RELATED PROTEIN PRECURSOR
Description: as §1, §2, §3

O=[N+]([O-])/N=C1\NCCN1Cc1ccc(Cl)nc1 [imidacloprid]
Induction factor = Expression (treated)/Expression (untreated) ([1]; 0.25 d): 0.9 | Median of the raw expression data, treated ([1]; 0.25 days): 175.49 | Induction factor = Expression (treated)/Expression (untreated) ([1]; 1 d): 0.4 | Median of the raw expression data, treated ([1]; 1 day): 70.99 | Induction factor = Expression (treated)/Expression (untreated) ([1]; 6 d): 7.8 | Median of the raw expression data, treated ([1]; 6 days): 1513.72 | Induction factor = Expression (treated)/Expression (untreated) ([1]; 8 d): 11.0 | Median of the raw expression data, treated ([1]; 8 days): 2102.86 | Induction factor = Expression (treated)/Expression (untreated) ([1]; 11 d): 7.4 | Median of the raw expression data, treated ([1]; 11 days): 1580.30 | Induction factor = Expression (treated)/Expression (untreated) ([1]; 13 d): 3.5 | Median of the raw expression data, treated ([1]; 13 days): 208.99 | Induction factor = Expression (treated)/Expression (untreated) ([1]; 15 d): 1.9 | Median of the raw expression data, treated ([1]; 15 days): 182.27 | Induction factor = Expression (treated)/Expression (untreated) ([1]; 16 d): 3.8 | Median of the raw expression data, treated ([1]; 16 days): 694.71 | Induction factor = Expression (treated)/Expression (untreated) ([1]; 17 d): 2.3 | Median of the raw expression data, treated ([1]; 17 days): 340.39 | Induction factor = Expression (treated)/Expression (untreated) ([2]; 0.25 d): 1.0 | Median of the raw expression data, treated ([2]; 0.25 days): 223.31 | Induction factor = Expression (treated)/Expression (untreated) ([2]; 1 d): 1.0 | Median of the raw expression data, treated ([2]; 1 day): 206.49 | Induction factor = Expression (treated)/Expression (untreated) ([2]; 6 d): 3.1 | Median of the raw expression data, treated ([2]; 6 days): 824.50 | Induction factor = Expression (treated)/Expression (untreated) ([2]; 8 d): 3.7 | Median of the raw expression data, treated ([2]; 8 days): 928.65 | Induction factor = Expression (treated)/Expression (untreated) ([2]; 11 d): 3.0 | Median of the raw expression data, treated ([2]; 11 days): 868.02 | Induction factor = Expression (treated)/Expression (untreated) ([2]; 13 d): 1.8 | Median of the raw expression data, treated ([2]; 13 days): 296.99 | Induction factor = Expression (treated)/Expression (untreated) ([2]; 15 d): 1.1 | Median of the raw expression data, treated ([2]; 15 days): 252.25 | Induction factor = Expression (treated)/Expression (untreated) ([2]; 16 d): 1.5 | Median of the raw expression data, treated ([2]; 16 days): 340.64 | Induction factor = Expression (treated)/Expression (untreated) ([2]; 17 d): 0.8 | Median of the raw expression data, treated ([2]; 17 days): 219.24 | Induction factor = Expression (treated)/Expression (untreated) ([3]; 0.25 d): 0.9 | Median of the raw expression data, treated ([3]; 0.25 days): 31.12 | Induction factor = Expression (treated)/Expression (untreated) ([3]; 1 d): 0.9 | Median of the raw expression data, treated ([3]; 1 day): 29.13 | Induction factor = Expression (treated)/Expression (untreated) ([3]; 6 d): 8.4 | Median of the raw expression data, treated ([3]; 6 days): 561.20 | Induction factor = Expression (treated)/Expression (untreated) ([3]; 8 d): 19.3 | Median of the raw expression data, treated ([3]; 8 days): 830.74 | Induction factor = Expression (treated)/Expression (untreated) ([3]; 11 d): 13.6 | Median of the raw expression data, treated ([3]; 11 days): 664.56 | Induction factor = Expression (treated)/Expression (untreated) ([3]; 13 d): 3.0 | Median of the raw expression data, treated ([3]; 13 days): 235.46 | Induction factor = Expression (treated)/Expression (untreated) ([3]; 15 d): 1.1 | Median of the raw expression data, treated ([3]; 15 days): 227.32 | Induction factor = Expression (treated)/Expression (untreated) ([3]; 16 d): 2.5 | Median of the raw expression data, treated ([3]; 16 days): 76.80 | Induction factor = Expression (treated)/Expression (untreated) ([3]; 17 d): 0.6 | Median of the raw expression data, treated ([3]; 17 days): 32.84 | Induction factor = Expression (treated)/Expression (untreated) ([4]; 0.25 d): 0.7 | Median of the raw expression data, treated ([4]; 0.25 days): 157.66 | Induction factor = Expression (treated)/Expression (untreated) ([4]; 1 d): 0.3 | Median of the raw expression data, treated ([4]; 1 day): 38.68 | Induction factor = Expression (treated)/Expression (untreated) ([4]; 6 d): 8.6 | Median of the raw expression data, treated ([4]; 6 days): 2482.57 | Induction factor = Expression (treated)/Expression (untreated) ([4]; 8 d): 14.7 | Median of the raw expression data, treated ([4]; 8 days): 3944.01 | Induction factor = Expression (treated)/Expression (untreated) ([4]; 11 d): 8.9 | Median of the raw expression data, treated ([4]; 11 days): 4273.57 | Induction factor = Expression (treated)/Expression (untreated) ([4]; 13 d): 11.3 | Median of the raw expression data, treated ([4]; 13 days): 1496.21 | Induction factor = Expression (treated)/Expression (untreated) ([4]; 15 d): 2.9 | Median of the raw expression data, treated ([4]; 15 days): 920.86 | Induction factor = Expression (treated)/Expression (untreated) ([4]; 16 d): 4.4 | Median of the raw expression data, treated ([4]; 16 days): 1300.36 | Induction factor = Expression (treated)/Expression (untreated) ([4]; 17 d): 2.9 | Median of the raw expression data, treated ([4]; 17 days): 1196.37
